Converted amounts (≈) assume the structure as drawn.
Experiments:
[1] = test system: E. coli ATCC BAA2469 (NDM-1 carbapenem-resistant); assay: MIC broth microdilution, E. coli ATCC BAA2469; assay type: cell-based, Escherichia coli; conditions: overnight incubation; for MIC: Escherichia coli, ATCCBAA2469, MDR; for MIC E. coli ATCC BAA2469 (NDM-1 carbapenem-resistant): MDR
Procedure: (§1) Antibacterial activity: The compounds were tested for the minimum inhibitory concentrations (MIC), which is the lowest concentration of a chemical required to inhibit visible microbial growth following overnight incubation. MIC values were determined using broth microdilution method according to the Clinical and Laboratory Standards Institute guidelines (CLSI, 2015, M07-A10). Mueller-Hinton broth was used as a culture medium in all the experiments. Exponentially growing bacterial cells were prepared in Mueller-Hinton broth at a concentration of approximately 5×10^5 CFU/mL. Two-fold serial dilutions of the test compound (8 concentrations ranged between 100-0.78 μg/mL) were tested. […] In each experiment, solvent (DMSO) was used as a negative control, un-treated control (composing of bacteria in Mueller-Hinton broth) was used as a growth control, blank (culture media alone) was used as sterility control. The 96-well microplate with the test compounds was incubated overnight at 37° C. Turbidity in wells indicated bacterial growth.
(§2) The compounds were tested on six MDR Gram-positive bacteria including three clinical isolates of methicillin-resistant Staphylococcus aureus (MRSA-1, MRSA-2 and MRSA-3) and three reference MRSA strains (ATCC33591, ATCC33592 and ATCC700699). They were also tested on three MDR Gram-negative bacteria including New Delhi metallo-beta-lactamase (NDM-1) positive, carbapenem-resistant E. coli (ATCC BAA2469), extended-spectrum beta-lactamase (ESBL) producing, colistin-resistant E. coli (CDC-AR-0346) and carbapenem-resistant Acinetobacter baumannii (ATCC BAA1605), in addition to two non-MDR bacteria from the same species, namely E. coli (ATCC 25922) Acinetobacter baumannii (ATCC 19606).

HEP3B = assay: MTT cell viability, HEP3B; assay type: cell-based; conditions: Homo sapiens, liver cancer, 48 h of drug treatment, average of three experiments
From the text: (§3) Cell culture: In this study five different cancer cell lines were used, human lung carcinoma (A549), human breast adenoma (MCF-7), Cervical carcinoma (Hela), hepatocellular carcinoma (Hep3B), and colorectal adenocarcinoma (HCT-116). These cells were obtained from the European Collection of Cell Cultures (ECACC, UK). Hep3B cells were maintained in Dulbecco's Modified Eagle Medium (DMEM: Sigma-Aldrich), and the four other cell lines were maintained in Roswell Park Memorial Institute medium (RPMI, Sigma-Aldrich, St. Louis, Mo., USA), which was supplemented with 10% fetal bovine serum (FBS, Sigma-Aldrich) and 1% penicillin/streptomycin (Sigma-Aldrich). Cells were incubated all the time at 37° C. in a humidified atmosphere of 5% CO2. Cell viability studies: Cell viability was assessed using the MTT assay as described before. In brief, all cancer cell lines were seeded at a density of 4×10^4/well in 96 well flat-bottom plates. After 24 h from seeding, cells were treated with the synthesized compounds and left for an incubation period of 48 h. Upon reaching the indicated time point, the media was removed and replaced with 200 μL fresh media containing 0.5 mg/mL of MTT tetrazolium dye (Sigma-Aldrich). Cells were then incubated with MTT solution for 2 h at 37° C. The resultant formazan crystals were dissolved in 200 μl/well of DMSO and absorbance was measured at 570 nm using a microplate reader (Thermo Scientific).

MRSA-ATCC700699 (VISA) = assay: MIC broth microdilution, MRSA ATCC700699 (VISA); assay type: cell-based, Staphylococcus aureus; conditions: for MIC: Staphylococcus aureus, strain intermediately resistant to vancomycin, overnight incubation, read-out: MIC MRSA-ATCC700699 (VISA)
Procedure: as §1, §2

[2] = test system: MRSA-1 (clinical isolate); assay: MIC broth microdilution, MRSA-1; assay type: cell-based, Staphylococcus aureus; conditions: Staphylococcus aureus, MRSA; overnight incubation, Mueller-Hinton broth; read-out: MIC MRSA-1 (clinical isolate)
Procedure: as §1, §2

E. coli ATCC25922 = assay: MIC broth microdilution, E. coli ATCC25922; assay type: cell-based, Escherichia coli; conditions: Escherichia coli, ATCC25922; not MDR; overnight incubation
Procedure: as §1, §2

[3] = test system: Acinetobacter baumannii ATCC BAA1605 (carbapenem-resistant); assay: MIC broth microdilution, A. baumannii ATCC BAA1605; assay type: cell-based; conditions: Acinetobacter baumannii, ATCCBAA1605, MDR; overnight incubation
Procedure: as §1, §2

[4] = test system: E. coli CDC-AR-0346 (ESBL, colistin resistant); assay: MIC broth microdilution, E. coli CDC-AR-0346; assay type: cell-based, Escherichia coli; conditions: for MIC fold higher than that of colistin: E. coli CDC-AR-0346, colistin 6.25 μg/mL; for MIC: Escherichia coli, MDR, overnight incubation
Procedure: as §1, §2

MRSA-ATCC33592 = assay: MIC broth microdilution, MRSA ATCC33592; assay type: cell-based, Staphylococcus aureus; conditions: Staphylococcus aureus; overnight incubation, Mueller-Hinton broth; read-out: MIC MRSA-ATCC33592
Procedure: as §1, §2

HELA = assay: MTT cell viability, HELA; assay type: cell-based; conditions: Homo sapiens, cervical cancer, 48 h of drug treatment, average of three experiments
From the text: as §3

[5] = test system: normal epithelial cells (HMEC); assay: Cell viability, normal epithelial cells; assay type: cell-based; conditions: Homo sapiens, 48 h of drug treatment, average of three experiments
Procedure: Cell viability studies: Cell viability was assessed using the MTT assay as described before. In brief, all cancer cell lines were seeded at a density of 4×10^4/well in 96 well flat-bottom plates. After 24 h from seeding, cells were treated with the synthesized compounds and left for an incubation period of 48 h. Upon reaching the indicated time point, the media was removed and replaced with 200 μL fresh media containing 0.5 mg/mL of MTT tetrazolium dye (Sigma-Aldrich). Cells were then incubated with MTT solution for 2 h at 37° C. The resultant formazan crystals were dissolved in 200 μl/well of DMSO and absorbance was measured at 570 nm using a microplate reader (Thermo Scientific).

[6] = test system: Acinetobacter baumannii ATCC 19606; assay: MIC broth microdilution, A. baumannii ATCC 19606; assay type: cell-based; conditions: Acinetobacter baumannii, ATCC19606; not MDR; overnight incubation
Procedure: as §1, §2

A549 = assay: MTT cell viability, A549; assay type: cell-based; conditions: Homo sapiens, lung cancer, 48 h of drug treatment, average of three experiments
From the text: as §3

HCT-116 = assay: MTT cell viability, HCT-116; assay type: cell-based; conditions: Homo sapiens, colon cancer, 48 h of drug treatment, average of three experiments
From the text: as §3

MCF-7 = assay: MTT cell viability, MCF-7; assay type: cell-based; conditions: Homo sapiens, MCF7; breast cancer; 48 h of drug treatment; average of three experiments
From the text: as §3

MRSA-ATCC33591 = assay: MIC broth microdilution, MRSA ATCC33591; assay type: cell-based, Staphylococcus aureus; conditions: Staphylococcus aureus; overnight incubation, Mueller-Hinton broth; read-out: MIC MRSA-ATCC33591
Procedure: as §1, §2

[7] = test system: MRSA-3 (clinical isolate); assay: MIC broth microdilution, MRSA-3; assay type: cell-based, Staphylococcus aureus; conditions: Staphylococcus aureus, MRSA; overnight incubation, Mueller-Hinton broth; read-out: MIC MRSA-3 (clinical isolate)
Procedure: as §1, §2

Row | Compound | MIC [1] [µg/mL] | MIC E. coli ATCC BAA2469 (NDM-1 carbapenem-resistant) [1] [µg/mL] | IC50 (HEP3B) [µM] | MIC (MRSA-ATCC700699 (VISA)) [µg/mL] | MIC times less than the MIC of vancomycin (MRSA-ATCC700699 (VISA); VISA strain ATCC 700699, vancomycin 8 μg/mL) [times] | MIC [2] [µg/mL] | MIC (E. coli ATCC25922) [µg/mL] | MIC [3] [µg/mL] | MIC fold higher than that of colistin [4] [fold] | MIC [4] [µg/mL] | MIC (MRSA-ATCC33592) [µg/mL] | IC50 (HELA) [µM] | IC50 [5] [µM] | MIC [6] [µg/mL] | IC50 (A549) [µM] | IC50 (HCT-116) [µM] | IC50 (MCF-7) [µM] | MIC (MRSA-ATCC33591) [µg/mL] | MIC [7] [µg/mL]
1 | Cc1ccc2c(c1)c1c3n2[C@@]2(C=C/C(=N\Nc4ccc(C(F)(F)F)cc4)CC2)CC[C@@H]3NCC1 [Compound 1h] | 6.25 to 12.5 (≈ 13.5 to 26.9 µM) | 12.5 (≈ 26.9 µM) | 2.56 ± 0.07 | 1.56 (≈ 3.36 µM) | ~5 | 1.56 (≈ 3.36 µM) | 12.5 (≈ 26.9 µM) | 25 (≈ 53.8 µM) | 2 | 12.5 (≈ 26.9 µM) | 1.56 (≈ 3.36 µM) | 3.5 ± 0.06 | 11.53 ± 0.04 | 6.25 (≈ 13.5 µM) | 4.897 ± 0.03 | 1.78 ± 0.7 | 3.72 ± 0.05 | 1.56 (≈ 3.36 µM) | 1.56 (≈ 3.36 µM)
2 | COc1ccc2c(c1)c1c3n2[C@@]2(C=C/C(=N\Nc4ccc(C(F)(F)F)cc4)CC2)CC[C@@H]3NCC1 [Compound 1k] | 25 (≈ 52 µM) | – | 2.276 ± 0.01 | 3.12 (≈ 6.5 µM) | – | 1.56 (≈ 3.25 µM) | 6.25 (≈ 13 µM) | 50 (≈ 104 µM) | – | 50 (≈ 104 µM) | 3.12 (≈ 6.5 µM) | 4.514 ± 0.03 | 28.01 ± 0.09 | 6.25 (≈ 13 µM) | 5.491 ± 0.05 | 3.39 ± 0.04 | 3.57 ± 0.34 | 3.12 (≈ 6.5 µM) | 1.56 (≈ 3.25 µM)
3 | FC(F)(F)Oc1ccc(N/N=C2\C=C[C@@]3(CC2)CC[C@@H]2NCCc4c2n3c2ccccc42)cc1 [Compound 1f] | 25 (≈ 53.6 µM) | – | 2.64 ± 0.03 | 6.25 (≈ 13.4 µM) | – | 6.25 (≈ 13.4 µM) | 12.5 (≈ 26.8 µM) | 25 (≈ 53.6 µM) | – | 25 (≈ 53.6 µM) | 6.25 (≈ 13.4 µM) | 3.89 ± 0.07 | 18.38 ± 0.05 | 12.5 (≈ 26.8 µM) | 5.99 ± 0.03 | 1.96 ± 0.05 | 3.56 ± 0.1 | 6.25 (≈ 13.4 µM) | 6.25 (≈ 13.4 µM)
4 | FC(F)(F)c1ccc(N/N=C2\C=C[C@@]3(CC2)CC[C@@H]2NCCc4c2n3c2ccccc42)cc1 (racemic) [Compound 1e] | 6.25 to 12.5 (≈ 13.9 to 27.7 µM) | 12.5 (≈ 27.7 µM) | 2.03 ± 0.08 | 3.12 (≈ 6.94 µM) | – | 1.56 (≈ 3.46 µM) | 6.25 (≈ 13.9 µM) | 12.5 (≈ 27.7 µM) | 2 | 12.5 (≈ 27.7 µM) | 3.12 (≈ 6.94 µM) | 2.56 ± 0.58 | 2.91 ± 0.07 | 6.25 (≈ 13.9 µM) | 4.011 ± 0.02 | 0.487 ± 0.03 | 1.86 ± 0.03 | 3.12 (≈ 6.94 µM) | 1.56 (≈ 3.46 µM)
